Test results from patent publication US9493468B2, “Antifungal 5,6-dihydro-4H-pyrrolo[1,2-a][1,4]benzo-diazepines and 6H-pyrrolo[1,2-a][1,4]benzodiazepines substituted with heterocyclic derivatives” (Janssen Pharmaceutica NV, priority 2011, dated 2016).
Like-named read-outs stand apart in the source and are kept apart here.

Columns and labels:
Type in all cases: cell-based
Candida parapsilosis = test: Antifungal activity in vitro, resazurin growth inhibition: Candida parapsilosis (B66126); conditions: for IC50: Lodderomyces parapsilosis
Summary of the method: (§1)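 Broth microdilution: RPMI-1640/L-Gln/2% glucose, MOPS pH 7.0±0.1; 10^3 cfu/well; top concentration 64 μM, 2- or 4-fold steps. Dermatophytes at 27° C., one week or more. Resazurin 0.005% (w/v) added, fluorescence 550/590 nm.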

Trichophyton rubrum = test: Antifungal activity in vitro, resazurin growth inhibition: Trichophyton rubrum (B68183)
Summary of the method: (§2)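 Dermatophytes incubated at 27° C. for one week or more with compound, max 64 μM, in RPMI-1640/MOPS pH 7.0±0.1, 10^3 cfu/well. Viability by resazurin-to-resorufin fluorescence, 550/590 nm.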

Microsporum canis = test: Antifungal activity in vitro, resazurin growth inhibition: Microsporum canis (B68128)
Summary of the method: as §2

Scedosporium apiospermum = test: Antifungal activity in vitro, resazurin growth inhibition: Scedosporium apiospermum (IHEM3817)
Experimental: (§3) The standard susceptibility screen is performed in 96-well plates (U-bottom, Greiner Bio-One). Serial dilutions (2-fold or 4-fold) of 20 mM compound stock solutions are made in 100% DMSO, followed by an intermediate dilution step in water. These serial dilutions (10 μl) are then spotted onto test-plates that can be stored in the dark at 4° C. for a maximum period of 2 weeks. An adequate broad dose-range is included with 64 μM as the highest in-test concentration. The culture medium RPMI-1640 is supplemented with L-glutamine, 2% glucose and buffered with 3-(N-morpholino)-propanesulfonic acid (MOPS) at pH 7.0±0.1.
(§4) The different fungal species/isolates (Table 3a) are cryopreserved and 1/1000 diluted in medium just prior to use. A standard inoculum of 200 μl containing 10^3 colony-forming unit (cfu) is then added to each well. A positive control (100% growth=fungal culture without antifungal) and a negative control (0% growth ═RPMI-MOPS medium) are included on each plate. Optimal incubation time and temperature are dependent on the fungal species and vary from 24 h for yeasts (37° C.) to one week or more for dermatophytes (27° C.). Inhibition of fungal growth is measured after adding 10 μl of 0.005% (w/v) resazurin (Sigma Aldrich) to each well, based on the principle that living cells convert the non-fluorescent blue resazurin into the pink and fluorescent resorufin, allowing fluorimetric reading (λex 550 nm and λem 590 nm) after an additional incubation period (‘resa’ time mentioned in Table 3a).

Sporothrix schenkii = test: Antifungal activity in vitro, resazurin growth inhibition: Sporothrix schenkii (B62482)
Summary of the method: as §1

Rhizomucor miehei = test: Antifungal activity in vitro, resazurin growth inhibition: Rhizomucor miehei (IHEM13391); conditions: for IC50: read-out: Inf. K: Rhizomucor miehei IHEM13391, pIC50 (converted)
Experimental: as §3, §4

Cryptococcus neoformans = test: Antifungal activity in vitro, resazurin growth inhibition: Cryptococcus neoformans (B66663)
Summary of the method: as §1

Aspergillus fumigatus = test: Antifungal activity in vitro, resazurin growth inhibition: Aspergillus fumigatus (B42928)
Summary of the method: as §1

Scedosporium prolificans = test: Antifungal activity in vitro, resazurin growth inhibition: Scedosporium prolificans (IHEM21157); conditions: for IC50: Lomentospora prolificans
Experimental: as §3, §4

[1] = system: Trichophyton mentagrophytes; test: Antifungal activity in vitro, resazurin growth inhibition: Trichophyton mentagrophytes (B70554)
Summary of the method: as §2

Rhizopus oryzae = test: Antifungal activity in vitro, resazurin growth inhibition: Rhizopus oryzae (IHEM5223); conditions: for IC50: Rhizopus arrhizus, read-out: Inf. J: Rhizopus oryzae IHEM5223, pIC50 (converted)
Experimental: as §3, §4

[2] = read-out: Inf. D: Candida parapsilosis B66126, pIC50 (converted)
[3] = read-out: Inf. C: Trichophyton rubrum B68183, pIC50 (converted)
[4] = read-out: Inf. B: Microsporum canis B68128, pIC50 (converted)
[5] = read-out: Inf. H: Scedosporium apiospermum IHEM3817, pIC50 (converted)
[6] = read-out: Inf. A: Sporothrix schenkii B62482, pIC50 (converted)
[7] = read-out: Inf. F: Cryptococcus neoformans B66663, pIC50 (converted)
[8] = read-out: Inf. E: Aspergillus fumigatus B42928, pIC50 (converted)
[9] = read-out: Inf. I: Scedosporium prolificans IHEM21157, pIC50 (converted)
[10] = read-out: Inf. G: Trichophyton mentagrophytes B70554, pIC50 (converted)
[11] = read-out: Inf. D: Candida parapsilosis B66126 pIC50 (converted)
[12] = read-out: Inf. C: Trichophyton rubrum B68183 pIC50 (converted)
[13] = read-out: Inf. B: Microsporum canis B68128 pIC50 (converted)
[14] = read-out: Inf. H: Scedosporium apiospermum IHEM3817 pIC50 (converted)
[15] = read-out: Inf. A: Sporothrix schenkii B62482 pIC50 (converted)
[16] = read-out: Inf. F: Cryptococcus neoformans B66663 pIC50 (converted)
[17] = read-out: Inf. E: Aspergillus fumigatus B42928 pIC50 (converted)
[18] = read-out: Inf. I: Scedosporium prolificans IHEM21157 pIC50 (converted)
[19] = read-out: Inf. G: Trichophyton mentagrophytes B70554 pIC50 (converted)

SMILES	Inf. D: Candida parapsilosis B66126, pIC50 (Candida parapsilosis)	Inf. C: Trichophyton rubrum B68183, pIC50 (Trichophyton rubrum)	Inf. B: Microsporum canis B68128, pIC50 (Microsporum canis)	Inf. H: Scedosporium apiospermum IHEM3817, pIC50 (Scedosporium apiospermum)	Inf. A: Sporothrix schenkii B62482, pIC50 (Sporothrix schenkii)	Inf. F: Cryptococcus neoformans B66663, pIC50 (Cryptococcus neoformans)	Inf. E: Aspergillus fumigatus B42928, pIC50 (Aspergillus fumigatus)	Inf. I: Scedosporium prolificans IHEM21157, pIC50 (Scedosporium prolificans)	Inf. G: Trichophyton mentagrophytes B70554, pIC50 [1]	Inf. K: Rhizomucor miehei IHEM13391, pIC50 (Rhizomucor miehei)	Inf. J: Rhizopus oryzae IHEM5223, pIC50 (Rhizopus oryzae)	other results
Cl.Clc1cccc2c1CNC(c1cc3ccccc3o1)c1cccn1-2 (racemic) [Compound 30]	5.22	6.29	6.27	4.94	4.89	<4.19	6.32	<4.19	6.15	<4.19	<4.19	
Cc1cccc2c1CNC(c1cc3cc(Cl)ccc3o1)c1cccn1-2.Cl (racemic) [Compound 34]	<4.19	6.72	6.40	<4.19	<4.19	<4.19	<4.19	5.66	6.22	<4.19	<4.19	
Fc1ccc2oc(C3NCc4c(Cl)cccc4-n4cccc43)cc2c1 (racemic) [Compound 47]	<4.19	6.25	5.84	6.03	<4.19	<4.19	4.91	6.38	5.08	4.81	<4.19	
Cc1cccc2c1-n1cccc1C(c1cc3ccccc3s1)NC2.Cl (racemic) [Compound 55]	<4.19	6.30	5.70	4.86	5.04	5.32	5.55	5.47	5.72	<4.19	<4.19	
Cc1cccc2c1CN=C(c1cc3ccccc3s1)c1cccn1-2 [Compound 2]												IC50 (Candida parapsilosis; [2]): > 64600 nM; IC50 (Trichophyton rubrum; [3]): 166 nM; IC50 (Microsporum canis; [4]): 331 nM; IC50 (Scedosporium apiospermum; [5]): 525 nM; IC50 (Sporothrix schenkii; [6]): 646 nM; IC50 (Rhizomucor miehei): > 64600 nM; IC50 (Cryptococcus neoformans; [7]): 2000 nM; IC50 (Aspergillus fumigatus; [8]): 2000 nM; IC50 (Scedosporium prolificans; [9]): 1620 nM; IC50 [1, 10]: 427 nM; IC50 (Rhizopus oryzae): > 64600 nM
Clc1cccc2c1CN=C(c1ccc3sccc3c1)c1cccn1-2 [Compound 9]												IC50 (Candida parapsilosis; [2]): 603 nM; IC50 (Trichophyton rubrum; [3]): 36.3 nM; IC50 (Microsporum canis; [4]): 107 nM; IC50 (Scedosporium apiospermum; [5]): 550 nM; IC50 (Sporothrix schenkii; [6]): 1660 nM; IC50 (Rhizomucor miehei): 2340 nM; IC50 (Cryptococcus neoformans; [7]): 646 nM; IC50 (Aspergillus fumigatus; [8]): 12.9 nM; IC50 (Scedosporium prolificans; [9]): 39.8 nM; IC50 [1, 10]: 97.7 nM; IC50 (Rhizopus oryzae): > 64600 nM
Clc1cccc2c1CN=C(c1cc3ccccc3o1)c1cccn1-2 [Compound 118]	5.70			<4.19	5.70	5.30			7.07	<4.19	<4.19	
Clc1cccc2c1CN=C(c1cnc3ccccc3c1)c1cccn1-2 [Compound 201]												IC50 (Candida parapsilosis; [11]): > 100000 nM; IC50 (Trichophyton rubrum; [12]): 1000 nM; IC50 (Microsporum canis; [13]): 1000 nM; IC50 (Scedosporium apiospermum; [14]): > 100000 nM; IC50 (Sporothrix schenkii; [15]): > 100000 nM; IC50 (Cryptococcus neoformans; [16]): > 100000 nM; IC50 (Aspergillus fumigatus; [17]): > 100000 nM; IC50 (Scedosporium prolificans; [18]): 100 nM; IC50 [1, 19]: > 100000 nM
c1ccc2c(c1)CN=C(c1cnc3ccccc3c1)c1cccn1-2 [Compound 202]												IC50 (Candida parapsilosis; [11]): > 100000 nM; IC50 (Trichophyton rubrum; [12]): 100 nM; IC50 (Microsporum canis; [13]): 10 nM; IC50 (Scedosporium apiospermum; [14]): 10000 nM; IC50 (Sporothrix schenkii; [15]): 1000 nM; IC50 (Cryptococcus neoformans; [16]): 10000 nM; IC50 (Aspergillus fumigatus; [17]): 2140 nM; IC50 (Scedosporium prolificans; [18]): 100 nM; IC50 [1, 19]: 468 nM

Further lines, with some results ahead:

Inf. D: Candida parapsilosis B66126, pIC50 (Candida parapsilosis)	Inf. C: Trichophyton rubrum B68183, pIC50 (Trichophyton rubrum)	Inf. B: Microsporum canis B68128, pIC50 (Microsporum canis)	Inf. H: Scedosporium apiospermum IHEM3817, pIC50 (Scedosporium apiospermum)	Inf. A: Sporothrix schenkii B62482, pIC50 (Sporothrix schenkii)	Inf. F: Cryptococcus neoformans B66663, pIC50 (Cryptococcus neoformans)	Inf. E: Aspergillus fumigatus B42928, pIC50 (Aspergillus fumigatus)	Inf. I: Scedosporium prolificans IHEM21157, pIC50 (Scedosporium prolificans)	Inf. G: Trichophyton mentagrophytes B70554, pIC50 [1]	SMILES	Inf. K: Rhizomucor miehei IHEM13391, pIC50 (Rhizomucor miehei)	Inf. J: Rhizopus oryzae IHEM5223, pIC50 (Rhizopus oryzae)	other results
5.12	6.99	6.36	5.68	5.17	5.28	6.00	6.38	6.40	CC(C)n1ccc(C2=NCc3c(Cl)cccc3-n3cccc32)cc1=O [Compound 70]	4.52	5.50	
4.92	6.31	5.91	6.29	4.44	<4.19	5.25	6.88	6.18	CCc1ccc(C2=NCc3c(Cl)cccc3-n3cccc32)cn1 [Compound 74]	<4.19	<4.19	
<4.19	5.75	6.34	5.07	4.46	4.82	4.72	5.46	5.00	CCc1ccc(C2=NCc3c(Cl)cc(Cl)cc3-n3cccc32)cn1 [Compound 76]	4.49	<4.19	
<4	4.67	4.50	<4	<4	<4	<4	<4	<4	Clc1ccc2c(c1)-n1cccc1C(c1ccncc1)=NC2 [Compound 203]			
<4	4.67	4.50	<4	<4	<4	<4	<4	<4	Clc1ccc2c(c1)-n1cccc1C(c1ccc3nc[nH]c3c1)=NC2 [Compound 204]			
<4	6.00	5.00	5.00	5.33	5.33	5.33	6.00	5.33	Clc1ccc2c(c1)-n1cccc1C(c1cnc3ccccc3c1)=NC2 [Compound 206]			
